Patent publication US20260265235A1, “BICYCLOAMINE CARBOXAMIDE DERIVATIVE” (Sumitomo Pharma Co., Ltd., priority 2022, published 2026)

Target: T1, Human orexin receptor type 2 (Homo sapiens, UniProt O43614)
T1 construct: expressed in transfected cells; host or cells: CHO cells (transient expression, with apoaequorin)
T1 sequence (O43614 1-444): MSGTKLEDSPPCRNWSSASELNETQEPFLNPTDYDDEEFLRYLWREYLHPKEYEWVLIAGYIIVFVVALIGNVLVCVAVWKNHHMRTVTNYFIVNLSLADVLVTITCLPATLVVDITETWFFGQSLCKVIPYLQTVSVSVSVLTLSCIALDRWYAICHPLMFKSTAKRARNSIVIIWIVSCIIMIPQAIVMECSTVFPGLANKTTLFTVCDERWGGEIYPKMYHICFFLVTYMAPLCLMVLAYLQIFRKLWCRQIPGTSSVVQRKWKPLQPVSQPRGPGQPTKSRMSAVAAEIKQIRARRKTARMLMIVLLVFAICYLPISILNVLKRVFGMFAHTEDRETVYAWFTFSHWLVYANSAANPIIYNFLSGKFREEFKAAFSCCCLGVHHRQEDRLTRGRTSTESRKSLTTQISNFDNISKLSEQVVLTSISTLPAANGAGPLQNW
Assay: Test Example 2: agonist activity for orexin receptor type 2 (aequorin luminescence, intracellular calcium mobilization in CHO cells)
Format: cell-based
Conditions: compound 10 μM; relative percentage of luminescence for the luminescence (100%) of Orexin A (100 μM); CHO cells transiently expressing human orexin receptor type 2 and apoaequorin
Method: Test Example 2: Measurement of Agonist Activity for Orexin Receptor Type 2
Human orexin receptor type 2 and apoaequorin were transiently expressed in CHO cells, and the agonist activity was evaluated based on intracellular calcium mobilization with ligand stimulation. The CHO cells transiently-expressed human orexin receptor type 2 and apoaequorin were seeded on a 384-well plate by 2,000 cells/well, and then incubated for 16-22 hours. After the plate was returned to room temperature, Coelenterazine hcp (final concentration: 1 μM) was added to the plate, and the plate was allowed to stand at room temperature for 2 hours. And then, Orexin A (PEPTIDE INSTITUTE, INC., Lot. 711101) or each test compound was added to the plate, and the luminescence of the cells was measured with FDSS7000 (Hamamatsu Photonics K.K.), wherein Orexin A and each test compound were dissolved in DMSO (final concentration: 0.1%), and diluted with a buffer (Hanks, 20 mM HEPES, 0.1% BSA). The agonist activity of each test compound for orexin receptor type 2 was calculated as relative percentage of luminescence for the luminescence (100%) of Orexin A (100 μM).
Each agonist activity of the compounds obtained in Examples (10 μM) for orexin receptor type 2 is shown in the table below as relative percentage of luminescence for the luminescence (100%) of Orexin A (100 μM).

Agonist Activity (%) | Compound
399 | CC(C)N1CCN([C@H]2CCCC(F)(F)[C@@H]2NC(=O)N2C[C@@H]3CN(c4cccc(F)c4)C[C@@H]3C2)CC1 [Example 22, (3aR,6aS)—N-{(1R,6S)-2,2-difluoro-6-[4-(propan-2-yl)piperazin-1-yl]cyclohexyl}-5-(3-fluorophenyl)hexahydropyrrolo[3,4-c]pyrrole-2(1H)-carboxamide]
396 | CC(C)N1CCN([C@H]2CCCC(F)(F)[C@@H]2NC(=O)N2C[C@H]3C[C@@H](c4ccccn4)C[C@H]3C2)CC1 [Example 25, (3aR,5R,6aS)—N-{(1R,6S)-2,2-difluoro-6-[4-(propan-2-yl)piperazin-1-yl]cyclohexyl}-5-(pyridin-2-yl)hexahydropenta[c]pyrrole-2(1H)-carboxamide]
404 | Cc1ccc(N2C[C@H]3CN(C(=O)N[C@@H]4[C@@H](N5CCN(C(C)C)CC5)CCCC4(F)F)C[C@H]3C2)cc1 [Example 23, (3aR,6aS)—N-{(1R,6S)-2,2-difluoro-6-[4-(propan-2-yl)piperazin-1-yl]cyclohexyl}-5-(4-methylphenyl)hexahydropyrrolo[3,4-c]pyrrole-2(1H)-carboxamide]
345 | CC(C)N1CCN([C@H]2CCCC(F)(F)[C@@H]2NC(=O)N2C[C@@H]3CN(c4ccccn4)C[C@@H]3C2)CC1 [Example 20, (3aR,6aS)—N-{(1R,6S)-2,2-difluoro-6-[4-(propan-2-yl)piperazin-1-yl]cyclohexyl}-5-(pyridin-2-yl)hexahydropyrrolo[3,4-c]pyrrole-2(1H)-carboxamide]
345 | Cc1nc(C2C[C@H]3CC(C(=O)N[C@@H]4[C@@H](O[C@H]5CCN(C(C)C)C5)CCCC4(F)F)C[C@H]3C2)no1 (stereo partly drawn) [Example 32, (3aR,5R,6aS)—N-[(1R,6S)-2,2-difluoro-6-{[(3S)-1-(propan-2-yl)pyrrolidin-3-yl]oxy}cyclohexyl]-5-(5-methyl-1,2,4-oxadiazol-3-yl)hexahydropenta[c]pyrrole-2(1H)-carboxamide]
414 | Cc1cccc([C@@H]2C[C@@H]3CN(C(=O)N[C@@H]4[C@@H](N5CCN(C(C)C)CC5)CCCC4(F)F)C[C@@H]3C2)c1 [Example 24, (3aR,5R,6aS)—N-{(1R,6S)-2,2-difluoro-6-[4-(propan-2-yl)piperazin-1-yl]cyclohexyl}-5-(3-methylphenyl)hexahydropenta[c]pyrrole-2(1H)-carboxamide]
393 | CC(C)N1CC[C@H](O[C@H]2CCCC(F)(F)[C@@H]2NC(=O)N2C[C@@H]3CN(c4ccccc4)C[C@@H]3C2)C1 [Example 29, (3aR,6aS)—N-[(1R,6S)-2,2-difluoro-6-{[(3S)-1-(propan-2-yl)pyrrolidin-3-yl]oxy}cyclohexyl]-5-phenylhexahydropyrrolo[3,4-c]pyrrole-2(1H)-carboxamide]
374 | Cc1nc([C@@H]2C[C@@H]3CN(C(=O)N[C@@H]4[C@@H](N5CCN(C(C)C)CC5)CCCC4(F)F)C[C@@H]3C2)no1 [Example 30, (3aR,5R,6aS)—N-{(1R,6S)-2,2-difluoro-6-[4-(propan-2-yl)piperazin-1-yl]cyclohexyl}-5-(5-methyl-1,2,4-oxadiazol-3-yl)hexahydropenta[c]pyrrole-2(1H)-carboxamide]
400 | CC(C)N1CC[C@H](O[C@H]2CCCC(F)(F)[C@@H]2NC(=O)N2C[C@H]3CC(c4ccccc4)C[C@H]3C2)C1 (stereo partly drawn) [Example 28, (3aR,5R,6aS)—N-[(1R,6S)-2,2-difluoro-6-{[(3S)-1-(propan-2-yl)pyrrolidin-3-yl]oxy}cyclohexyl]-5-phenylhexahydropenta[c]pyrrole-2(1H)-carboxamide]
343 | CC(C)N1CC[C@H](N(C)[C@H]2CCCC(F)(F)[C@@H]2NC(=O)N2C[C@H]3CC(c4ccccc4)C[C@H]3C2)C1 (stereo partly drawn) [Example 33, (3aR,5R,6aS)—N-[(1R,6S)-2,2-difluoro-6-{methyl[(3S)-1-(propan-2-yl)pyrrolidin-3-yl]amino}cyclohexyl]-5-phenylhexahydropenta[c]pyrrole-2(1H)-carboxamide]
252 | Cc1nc(C2C[C@@H]3CN(C(=O)N[C@@H]4[C@@H](N(C)[C@H]5CCN(C(C)C)C5)CCCC4(F)F)C[C@@H]3C2)no1 (stereo partly drawn) [Example 31, (3aR,5R,6aS)—N-[(1R,6S)-2,2-difluoro-6-{methyl[(3S)-1-(propan-2-yl)pyrrolidin-3-yl]amino}cyclohexyl]-5-(5-methyl-1,2,4-oxadiazol-3-yl)hexahydropenta[c]pyrrole-2(1H)-carboxamide]
